Experimental data from paper PMC8569681, “New Pyrimidine and Pyridine Derivatives as Multitarget Cholinesterase Inhibitors: Design, Synthesis, and In Vitro and In Cellulo Evaluation” (ACS Chemical Neuroscience, 2021).
“Also recorded” adds a separate entry of the source. Where two headings read alike, the source gives them in different places.

Key:
[1] = biological target: T1, tau protein (Homo sapiens, UniProt P10636); experiment: Inhibition of tau aggregation in intact E. coli cells, thioflavin-S; type: cell-based, Escherichia coli; conditions: [I] = 100 μM
T1 construct: expressed in transfected cells; host or cells: E. coli BL21 (DE3) with pTARA and pRKT42
T1 sequence (P10636 1-441 isoform P10636-8): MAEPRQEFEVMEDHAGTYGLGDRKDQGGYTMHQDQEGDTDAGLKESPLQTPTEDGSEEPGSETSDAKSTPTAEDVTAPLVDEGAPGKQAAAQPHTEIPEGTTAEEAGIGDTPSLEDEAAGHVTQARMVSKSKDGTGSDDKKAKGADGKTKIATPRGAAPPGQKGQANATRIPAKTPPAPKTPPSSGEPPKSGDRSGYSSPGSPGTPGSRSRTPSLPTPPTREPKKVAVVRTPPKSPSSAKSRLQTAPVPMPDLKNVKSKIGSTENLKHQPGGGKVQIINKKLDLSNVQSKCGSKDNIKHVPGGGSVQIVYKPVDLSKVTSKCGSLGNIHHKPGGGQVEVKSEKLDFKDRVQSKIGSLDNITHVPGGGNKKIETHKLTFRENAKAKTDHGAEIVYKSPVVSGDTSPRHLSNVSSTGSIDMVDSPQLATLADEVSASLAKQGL
Method: The anti-aggregating effect of the tested compounds was monitored by a cell-based assay in intact Escherichia coli cells that overexpress either the Aβ42 peptide or tau protein, which upon overexpression form insoluble inclusion bodies that were stained with thioflavin-S, an amyloid specific dye.[36] The percentages of inhibition toward Aβ42 and tau aggregation were determined at an inhibitor concentration of 100 μM, and the obtained results are reported in Table 7.
E. coli BL21 (DE3) competent cells were transformed with pTARA containing the RNA-polymerase gene of T7 phage (T7RP) under the control of the promoter PBAD. E. coli BL21 (DE3) with pTARA competent cells were transformed with the pRKT42 vector encoding four repeats of the tau protein in two inserts. For overnight culture preparation, 10 mL of the M9 medium containing 0.5% of glucose, 50 μg·mL^–1 of ampicillin, and 12.5 μg·mL^–1 of chloramphenicol was inoculated with a colony of BL21 (DE3) bearing the plasmids to be expressed at 37 °C. For expression of the tau protein, the required volume of overnight culture to obtain 1:500 dilution was added to the fresh M9 minimal medium containing 0.5% of glucose, 50 μg·mL^–1 of ampicillin, 12.5 μg·mL^–1 of chloramphenicol, and 250 μM Th-S. The bacterial culture was grown at 37 °C and 250 rpm. When the cell density reached OD600 = 0.6, an amount of 980 μL of culture was transferred into Eppendorf tubes of 1.5 mL with 10 μL of each compound to be tested in DMSO and 10 μL of arabinose at 25%. The final concentration of the drug was fixed at 100 μM. The samples were grown overnight at 37 °C and 1400 rpm using a ThermoMixer (Eppendorf, Hamburg, Germany). As negative control (maximal presence of tau), the same amount of DMSO without the drug was added in the sample. In parallel, non-induced samples (in the absence of arabinose) were also prepared and used as positive controls (absence of tau). In addition, these samples were used to assess the potential intrinsic toxicity of the compounds and to confirm the correct bacterial growth.
Th-S (T1892) and other chemical reagents were purchased from Sigma (St. Louis, MO). The Th-S stock solution ([…]) was prepared in double-distilled water purified through a Milli-Q system (Millipore, USA). Th-S fluorescence and absorbance were tracked using a DTX 800 plate reader Multimode Detector equipped with a Multimode Analysis Software (Beckman-Coulter, USA). Filters of 430/35 and 485/20 nm were used for the excitation and emission wavelengths, respectively. Filters of 535/25 nm were also used for the absorbance determination. To normalize the Th-S fluorescence as a function of the bacterial concentration, OD600 was obtained using a Shimadzu UV-2401 PC UV–vis spectrophotometer (Shimadzu, Japan). Note that the fluorescence normalization was carried out considering as 100% the Th-S fluorescence of the bacterial cells expressing the peptide or protein in the absence of drug and 0% the Th-S fluorescence of the bacterial cells not expressing the peptide or protein. A minimum of five independent assays (with three replicates for assay) was performed for each tested compound. More assays were performed to obtain a SEM < 5% with a maximum of 10 independent assays.

[2] = biological target: T2, Electrophorus electricus AChE (EeAChE) (Electrophorus electricus, UniProt O42275); experiment: Percent inhibition of EeAChE, Ellman's spectrophotometric method; type: biochemical; conditions: for inhibition at 900 µM: read-out: % inhibition vs EeAChE ± SD (900 uM), 900 uM; for inhibition at 0.9 µM: read-out: % inhibition vs EeAChE ± SD, [I] 900 nM; for inhibition at 90 µM: read-out: % inhibition vs EeAChE ± SD (90 uM), 90 uM; for inhibition at 0.09 µM: read-out: % inhibition vs EeAChE ± SD, [I] 90 nM
T2 construct: purchased Sigma-Aldrich (Milan, Italy)
T2 sequence (O42275 24-633): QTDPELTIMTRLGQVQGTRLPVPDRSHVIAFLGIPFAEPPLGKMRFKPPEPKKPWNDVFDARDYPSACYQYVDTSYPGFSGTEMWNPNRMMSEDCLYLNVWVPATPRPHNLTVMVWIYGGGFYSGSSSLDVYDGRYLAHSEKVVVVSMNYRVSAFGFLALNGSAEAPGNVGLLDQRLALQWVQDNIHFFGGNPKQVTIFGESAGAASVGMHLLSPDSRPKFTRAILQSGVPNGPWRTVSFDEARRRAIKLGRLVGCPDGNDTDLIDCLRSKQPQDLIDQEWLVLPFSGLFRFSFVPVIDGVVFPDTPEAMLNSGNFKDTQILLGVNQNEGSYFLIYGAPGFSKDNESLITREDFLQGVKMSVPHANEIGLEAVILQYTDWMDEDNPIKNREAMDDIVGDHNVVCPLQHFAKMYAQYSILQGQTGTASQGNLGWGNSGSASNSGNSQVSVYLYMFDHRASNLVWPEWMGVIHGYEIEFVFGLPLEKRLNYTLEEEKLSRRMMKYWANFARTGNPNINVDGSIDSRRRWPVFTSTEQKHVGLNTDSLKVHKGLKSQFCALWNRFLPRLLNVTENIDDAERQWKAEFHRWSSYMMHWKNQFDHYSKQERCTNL
Method: All other chemical and biological reagents and solvents used were of the highest analytical, commercially available grade. The water, utilized for the preparation of the phosphate buffer and of the compound solutions, was distilled and filtered on nylon membrane filters with a 0.2 μm pore size with the Millipore Filtration apparatus before each use. Micropipettes Labmate (BRAND Dig. 10–100 μL; Dig. 100–1000 μL; Dig. 0.1–2 μL) and Transferpette (HIGH TECH LAB LM200: 20–200 μL; LM5000: 1000–5000 μL) were used to collect the samples. The assays were carried out by a double beam UV–vis Lambda 40 Perkin Elmer spectrophotometer using optical polystyrene cuvettes (10 × 10 × 45 mm, 340–800 nm optical transparency); each measure was repeated at least in triplicate. […] The spectrophotometric method of Ellman[25] with minor modifications was used to evaluate the inhibition of ChEs. […] EeAChE and eqBChE were periodically tested to evaluate the effective enzymatic activity.
For all the synthesized compounds, the percentages of inhibition toward AChE of Electrophorus electricus (EeAChE) and equine BChE (eqBChE) were evaluated.
Three milliliters of a solution in 0.1 M phosphate buffer (pH = 7.4) containing DTNB (0.25 mM) and EeAChE (0.083 UmL^–1) or eqBChE (0.083 UmL^–1) was placed in a polystyrene cuvette of 1.0 cm path length; 1 μL of a […] With this solution, the blank was made. […] Each experiment was repeated at least in triplicate.

[3] = biological target: T2, Electrophorus electricus AChE (EeAChE); experiment: Inhibition constant and mechanism vs EeAChE, Dixon's method; type: biochemical; conditions: for inhibition mechanism on EeAChE: Dixon's plot, best fitting model; for α, EeAChE: mixed inhibition, α > 1 free enzyme, α < 1 enzyme–substrate complex; for Ki: three substrate and five inhibitor concentrations, read-out: Ki ± SD, EeAChE
Method: . The recorded data were analyzed with the enzyme kinetic module of SigmaPlot to find the best fitting model of inhibition using the linear regression analysis. The reference kinetic models used in the regression analysis were competitive, noncompetitive, uncompetitive, and mixed. Each determination was repeated five times, and incorrect values were discarded to reduce the standard deviation within the limit of 5%. In this way, the regression lines obtained have a linear regression coefficient (R^2) higher than 0.95. Dixon’s plots of all tested compounds are reported in the Supporting Information (Figures S1–S12).
18, 22, 25, 26, 28, and 30 toward eqBChE). For each compound, a 500 μM stock solution was prepared in H2O/DMSO or in 10^–2 M HCl and diluted in water to prepare solutions of opportune concentrations to introduce in the cuvette volumes ranging from 30 to 100 μL, to obtain the desired final concentrations. The maximum amount of DMSO used for the preparation of the stock solution was calculated to have a DMSO content in cuvette <0.033%.
Three milliliters of 0.1 M phosphate buffer (pH = 7.4) containing DTNB (0.25 mM) and EeAChE (0.083 UmL^–1) or eqBChE (0.083 UmL^–1) was mixed with the opportune volume of the inhibitor solution to obtain a final inhibitor concentration in cuvette between 90 and 1800 nM. With this solution, the blank was made. […]. The absorbance variations were measured at 412 nm at 25 °C between 0.5 and 1.5 min.
To determine the inhibition constants (Ki) and the inhibition mechanisms, the rates of hydrolysis at three different concentrations of substrate in the presence of five different concentrations of inhibitor were measured.

[4] = read-out: % inhibition vs EeAChE ± SD (9 uM), 9 uM, supplement csv
[5] = 0.0833 U/mL enzyme, 100 μM acetylthiocholine
[6] = read-out: % inhibition vs EeAChE ± SD, [I] 9 μM, 0.0833 U/mL enzyme, 100 μM acetylthiocholine

| SMILES | inhibition at 100 µM [1] | inhibition at 9 µM [2, 4] | inhibition at 900 µM ([2]; supplement csv) | inhibition at 0.9 µM [2, 5] | inhibition at 9 µM [2, 6] | inhibition mechanism on EeAChE [3] | α, EeAChE [3] | Ki [3] | inhibition at 90 µM ([2]; supplement csv) | inhibition at 0.09 µM [2, 5] |
| --- | --- | --- | --- | --- | --- | --- | --- | --- | --- | --- |
| COc1cc(CNCCCCCCNc2ncccn2)ccc1O [Compound 18, 2-Methoxy-4-(((6-(pyrimidin-2-ylamino)hexyl)amino)methyl)phenol] | 1% | 59.5 ± 3.6% | 14.7 ± 0.5% | 14.7 ± 0.5% | 60 to 70% | – | – | – | – | – |
| c1cnc(NCCCCCCNCc2c[nH]c3ccccc23)nc1 [Compound 22, N^1-((1H-Indol-3-yl)methyl)-N^6-(pyrimidin-2-yl)hexane-1,6-diamine] | 6.8% | 69.2 ± 1.4% | 16.4 ± 1.9% | 16.4 ± 1.9% | 60 to 70% | – | – | – | – | – |
| c1ccc(CNCCCCCCNc2ncccn2)cc1 [Compound 13, N^1-Benzyl-N^6-(pyrimidin-2-yl)hexane-1,6-diamine] | 12.6% | 92.9 ± 0.4% | 60.3 ± 1.5% | – | ~90% | mixed | 0.3 | 426 ± 132 nM | 19.2 ± 1.4% | 19.2 ± 1.4% |
| Oc1cccc(CNCCCCCCNc2ncccn2)c1O [Compound 20, 3-(((6-(Pyrimidin-2-ylamino)hexyl)amino)methyl)benzene-1,2-diol] | 4.6% | 90.5 ± 0.5% | 53.6 ± 3.1% | 40 to 60% | ~90% | – | – | – | 12.8 ± 1.9% | 12.8 ± 1.9% |
| c1ccc(CNCCCCCCNc2ccccn2)cc1 [Compound 25, N^1-Benzyl-N^6-(pyridin-2-yl)hexane-1,6-diamine] | 6.7% | 73.3 ± 0.1% | 23.1 ± 5.7% | 23.1 ± 5.7% | 73% | mixed | 0.8 | 995 ± 374 nM | 71.6 ± 2.1% | – |
| Brc1ccc(CNCCCCCCNc2ccccn2)cc1 [Compound 26, N^1-(4-Bromobenzyl)-N^6-(pyridin-2-yl)hexane-1,6-diamine] | 7.3% | 23.5 ± 2.2% | – | – | 24 to 30% | – | – | – | 76.8 ± 0.5% | – |
| c1ccc(CNCCCCCNc2ncccn2)cc1 [Compound 9, N^1-Benzyl-N^5-(pyrimidin-2-yl)pentane-1,5-diamine] | 2.6% | 90.2 ± 0.7% | 57.1 ± 0.9% | 40 to 60% | ~90% | mixed | 7.5 | 312 ± 108 nM | 14.1 ± 1.4% | 14.1 ± 1.4% |
| c1ccc(CNCCCCCNc2ccccn2)cc1 [Compound 23, N^1-Benzyl-N^5-(pyridin-2-yl)pentane-1,5-diamine] | 7% | 53.5 ± 1.4% | 10.3 ± 0.8% | 10.3 ± 0.8% | 53.5 ± 1.4% | mixed | 2.2 | 743 ± 316 nM | 56.5 ± 3% | – |
| COc1cc(CNCCCCCCNc2ccccn2)ccc1O [Compound 30, 2-Methoxy-4-(((6-(pyridin-2-ylamino)hexyl)amino)methyl)phenol] | 12.8% | 61.8 ± 1.9% | 17.3 ± 0.6% | 17.3 ± 0.6% | ~60% | – | – | – | 90.9 ± 0.6% | – |
| Oc1cccc(CNCCCCCCNc2ncccn2)c1 [Compound 19, 3-(((6-(Pyrimidin-2-ylamino)hexyl)amino)methyl)phenol] | 9.9% | 84.4 ± 0.3% | 39 ± 1.9% | 40 to 60% | ~90% | uncompetitive; also recorded: uncomp | – | 509 ± 18 nM | – | – |
